Data: patent publication US20250163062A1, “WNT PATHWAY INHIBITOR COMPOUNDS” (ADLAI NORTYE BIOPHARMA CO., LTD., priority 2022, published 2025)
pIC50: −log10 of the molar value. Where two headings read alike, the source gives them in different places.

Columns and labels:
Format in all cases: cell-based
Colo205 = assay: Proliferation inhibition test, Wnt mutant cell line Colo205; details: Colo205, 96 h culture with compound, read-out: Antiproliferation IC50 Colo205
Source text: (§1) The cell lines used in the experiment are Colo205, H929, HepG2, and DU4475, which have sustained activation of the Wnt pathway and whose proliferation is Wnt pathway-dependent. On the other hand, RKO cell line, in which normally the Wnt pathway is not activated and whose proliferation is not Wnt pathway-dependent, was used as a control cell line. This was done to determine whether the inhibitory effect of the compound of the present disclosure on Wnt-dependent proliferation is due to other nonspecific toxicity.
(§2) Colo205, H929, DU4475, HepG2 and RKO cell lines cultured in their respective culture media were treated in the logarithmic growth phase, and the cells were collected and prepared into a uniform cell suspension of known concentration, and then added to a 96-well cell culture plate so that each well contained 1000-4000 cells. Place in a 5% CO2 cell culture incubator and culture at 37° C. for 20-24 h. On the second day, add the completely dissolved, 3-fold gradient dilution compound to each cell culture well to make the final maximum concentration in the cell culture well 10 uM, and continue to culture for 96 h. This test uses Promega's cell activity detection test for detection. The more the cells proliferate, the stronger the final signal intensity. The detection instrument is SpectraMax, full wavelength mode. The wells with only DMSO added were used as positive control wells, and the wells without cells inoculated were used as negative control wells.

[1] = test system: Colo205-LUC-TCF/LEF reporter gene; assay: Colo205-LUC-TCF/LEF M1 reporter cell line luciferase inhibition; details: 4 h, 4 hours incubation, firefly luciferase signal
Protocol: Colo205 cell line (Cell Bank of Chinese Academy of Sciences, Cat #TCHul02) was purchased from the Cell Bank of Chinese Academy of Sciences. After expansion and subculture, during the exponential growth phase, luciferase reporter plasmid (Promega) driven by TCF/LEF transcription factor was transfected by lipo3000 liposome transfection. The plasmid carries a resistance gene for resistance screening. Transfection was carried out in 10 cm culture dishes using conventional complete medium without resistance. After 2 days, the medium with resistance was replaced, and the culture was continued. After that, the medium with resistance was replaced every 2 days, and the suspended cells were discarded. The original medium was centrifuged to remove cells and debris and retained as an adaptive medium. When the cells covered the culture dish, the cells were digested, counted, and passaged in a 96-well plate, so that the average number of cells contained in each well was 1.5/well, and the adaptive medium was used for passage. The rest of the cells were frozen. After passage, culture for 4 hours to allow the cells to adhere to the wall, and then observe the number of cells in each well under a microscope. Wells with only 1 cell per well were labeled as monoclonal wells. Afterwards, normal culture was performed, and the culture medium was replaced every 2 days, and observed. There are wells where the monoclonal cells continue to grow in the early stage, and they are labeled twice, and can be replaced with normal medium with resistance. When a monoclonal well was overgrown with a 96-well plate, it is digested and passaged to a 24-well culture plate. After the 24-well plate is overgrown, it is passaged to a 96-well plate and a 6-well plate. The cells in a 96-well plate are at least 6 wells, of which 3 wells were added with known Wnt inhibitors, and the other 3 wells were not treated. After 24 hours, the cells in the 96-well plate were added with a fluorescence detection reagent to detect the fluorescence intensity. Cell lines with fluorescent expression when not treated and decreased fluorescent light after inhibition were selected and further cultured. The Colo205-LUC-TCF/LEF-M1 cell line is one of the cell lines screened above. Its growth curve, cell shape, and cell growth state are similar to those of the original Colo205 cells, and the ratio of the fluorescent signals of the inhibitor-treated and untreated cells is the largest among all cell lines, and the ratio can reach 4-5 times when inhibited at 4 hours, which was completely suitable for the screening of Wnt inhibitors in the later stage.
The Colo205-LUC-TCF/LEF M1 cell line is a reporter tool cell stably transfected with the pGL4.49-LUC2-TCF/LEF vector. The β-catenin Wnt pathway is continuously activated. After adding the inhibitor, the Wnt pathway is inhibited. The expression of firefly luciferase regulated by the TCF/LEF cis-element decreased, and after adding the detection substrate, the detected light signal decreased accordingly, so as to detect the inhibitory effect of the compound.
To a 96-well cell culture plate, add 100 uL of the compound with a maximum concentration of 20 uM to each well, and make a 3-fold serial dilution of the compound concentration. Then 10,000 colo205 cells stably transfected with the reporter gene and 100 uL medium were inoculated into each well, and corresponding positive and negative control wells were made at the same time. Put the cells in a 5% CO2 incubator and incubate at 37° C. for 4 hours. After 4 hours, remove the culture medium, add 100 μL of reagent (Promega) containing the corresponding firefly luciferase substrate to each well, and measure the activity of luciferase reporter gene. Luminescence intensity was read with SpectraMax in full wavelength mode. […]

DU4475 = assay: Proliferation inhibition test, Wnt mutant cell line DU4475; details: DU4475, 96 h culture with compound, read-out: Antiproliferation IC50 DU4475
Source text: as §1, §2

HepG2 = assay: Proliferation inhibition test, Wnt mutant cell line HepG2; details: HepG2, 96 h culture with compound, read-out: Antiproliferation IC50 HepG2
Source text: as §1, §2

H929 = assay: Proliferation inhibition test, Wnt mutant cell line H929; details: H929, 96 h culture with compound, read-out: Antiproliferation IC50 H929
Source text: as §1, §2

RKO = assay: Proliferation inhibition test, non-Wnt mutant control cell line RKO; details: RKO (Wnt pathway not activated, control), 96 h culture, maximum concentration 10 uM, read-out: Antiproliferation IC50 RKO
Source text: as §1, §2

SMILES | pIC50 (Colo205; Homo sapiens, COLO 205, 96 h) | pIC50 [1] | pIC50 (HepG2; Homo sapiens, HepG2, 96 h) | pIC50 (H929; Homo sapiens, NCI-H929, 96 h) | pIC50 (Colo205) | pIC50 (HepG2) | pIC50 (H929) | pIC50 (DU4475; Homo sapiens, DU-4475, 96 h) | pIC50 (RKO; Homo sapiens) | pIC50 (DU4475) | pIC50 (RKO)
[2H]C([2H])([2H])N1c2nc(NCc3ccc(Oc4cnc(C(F)(F)F)nc4C4CC4)nc3)nc3c2N(CCC3)C(=O)[C@]1(C)CO [Compound 10, (S)-2-(((6-((4-cyclopropyl-2-(trifluoromethyl)pyrimidin-5-yl)oxy)pyridin-3-yl)methyl)amino)-5-(hydroxymethyl)-5-methyl-4-(methyl-d3)-4,5,9,10-tetrahydro-6H,8H-pyrido[3,2,1-de]pteridin-6-one] | 8.63 | 8.41 | 8.45 | 7.75 |  |  |  | > 9.30 | < 5.00 |  | 
[2H]C([2H])([2H])N1c2nc(NCc3ccc(Oc4ccc(C(F)(F)F)nc4Br)nc3)nc3c2N(CCC3)C(=O)[C@]1(C)CO [Compound 12, (S)-2-(((6-((2-bromo-6-(trifluoromethyl)pyridin-3-yl)oxy)pyridin-3-yl)methyl)amino)-5-(hydroxymethyl)-5-methyl-4-(methyl-d3)-4,5,9,10-tetrahydro-6H,8H-pyrid o[3,2,1-de]pteridin-6-one] | 8.19 | 8.04 | 7.92 | 7.51 |  |  |  | 9.09 | < 5.00 |  | 
CNc1nc(C(F)(F)F)ccc1Oc1ccc(CNc2nc3c4c(n2)N(C)[C@@](C)(CO)C(=O)N4CCC3)cn1 [Compound 16, (S)-5-(Hydroxymethyl)-4,5-dimethyl-2-(((6-((2-(methylamino)-6-(trifluoromethyl)pyridin-3-yl)oxy)pyridin-3-yl)methyl)amino)-4,5,9,10-tetrahydro-6H,8H-pyrido[3,2,1-de]pteridin-6-one] | > 10.00 | 7.67 | 8.95 | 6.99 |  |  |  | 8.92 | < 5.00 |  | 
[2H]C([2H])([2H])N1c2nc(NCc3ccc(Oc4ccc(C(F)(F)F)nc4F)nc3)nc3c2N(CCC3)C(=O)[C@]1(C)CO [Compound 18, (S)-2-(((6-((2-fluoro-6-(trifluoromethyl)pyridin-3-yl)oxy)pyridin-3-yl)methyl)amino)-5-(hydroxymethyl)-5-methyl-4-(methyl-d3)-4,5,9,10-tetrahydro-6H,8H-pyrido[3,2,1-de]pteridin-6-one] | 8.13 | 7.52 | 7.66 | 7.10 |  |  |  | 8.17 | < 5.00 |  | 
Cc1nc(C(F)(F)F)ncc1Oc1ccc(CNc2nc3c4c(n2)N(C)[C@@](C)(CO)C(=O)N4CCC3)cn1 [Compound 19] | 7.57 | 7.46 | 7.51 | 7.23 |  |  |  | 7.83 | < 5.00 |  | 
CN(c1nc(C(F)(F)F)ccc1Oc1ccc(CNc2nc3c4c(n2)N(C)[C@@](C)(CO)C(=O)N4CCC3)cn1)C1CC1 [Compound 20] | > 10.00 | 8.84 | 8.49 | 7.28 |  |  |  | > 10.00 | < 5.00 |  | 
CN1c2nc(NCc3ccc(Oc4ccc(C(F)(F)F)nc4N4CC(F)(F)C4)nc3)nc3c2N(CCC3)C(=O)[C@]1(C)CO [Compound 21] | > 10.00 | 8.31 | 8.82 | 6.59 |  |  |  | 8.32 | < 5.00 |  | 
[2H]C([2H])([2H])N1c2nc(NCc3ccc(Oc4cnc(C(F)(F)F)nc4C)nc3)nc3c2N(CCC3)C(=O)[C@@H]1[C@@H](C)O [Compound 24] | 7.33 | 7.32 | 7.43 | 8.25 |  |  |  | 7.63 | < 5.00 |  | 
CN1c2nc(NCc3ccc(Oc4ccc(C(F)(F)F)nc4F)nc3)nc3c2N(CCC3)C(=O)[C@@H]1CO [Compound 26] | 7.72 | 7.36 | 7.87 | 7.01 |  |  |  | 7.92 | < 5.00 |  | 
[2H]C([2H])([2H])N1c2nc(NCc3ccc(Oc4ccc(C(F)(F)F)nc4F)nc3)nc3c2N(CCC3)C(=O)[C@@H]1CO [Compound 27] | 7.64 | 7.51 | 7.42 | 7.05 |  |  |  | 7.61 | < 5.00 |  | 

Now from value to compound, other results behind:

pIC50 (Colo205; Homo sapiens, COLO 205, 96 h) | pIC50 [1] | pIC50 (HepG2; Homo sapiens, HepG2, 96 h) | pIC50 (H929; Homo sapiens, NCI-H929, 96 h) | pIC50 (Colo205) | pIC50 (HepG2) | pIC50 (H929) | SMILES | pIC50 (DU4475; Homo sapiens, DU-4475, 96 h) | pIC50 (RKO; Homo sapiens) | pIC50 (DU4475) | pIC50 (RKO)
7.94 | 8.16 | 7.72 | 7.27 |  |  |  | CN1c2nc(NCc3ccc(Oc4ccc(C(F)(F)F)nc4N4CCCC4)nc3)nc3c2N(CCC3)C(=O)[C@]1(C)CO [Compound 13, (S)-5-(Hydroxymethyl)-4,5-dimethyl-2-(((6-((2-(pyrrolidin-1-yl)-6-(trifluoromethyl)pyridin-3-yl)oxy)pyridin-3-yl)methyl)amino)-4,5,9,10-tetrahydro-6H,8H-pyrido[3,2,1-de]pteridin-6-one] | 8.80 | < 5.00 |  | 
6.75 | 6.58 | 6.06 | 6.22 |  |  |  | CN1c2nc(NCc3ccc(Oc4ccc(C(F)(F)F)nc4CC#N)nc3)nc3c2N(CCC3)C(=O)[C@@H]1CO [Compound 17, (S)-2-(3-((5-(((5-(Hydroxymethyl)-4-methyl-6-carbonyl-5,6,9,10-tetrahydro-4H,8H-pyrido[3,2,1-de]pteridin-2-yl)amino)methyl)pyridin-2-yl)oxy)-6-(trifluoromethyl)pyridin-2-yl)acetonitrile] | 7.37 | < 5.00 |  | 
 | 7.05 |  |  | 7.19 | 6.65 | 6.51 | Cc1nc(C(F)(F)F)ncc1Oc1ccc(CNc2nc3c4c(n2)N(C)[C@@](C)([C@H](C)O)C(=O)N4CCC3)cn1 [Compound 22] |  |  | 7.41 | < 5.00
7.27 | 7.19 | 7.43 | 6.72 |  |  |  | Cc1nc(C(F)(F)F)ncc1Oc1ccc(CNc2nc3c4c(n2)N(C)[C@@H]([C@@H](C)O)C(=O)N4CCC3)cn1 [Compound 23] | 7.80 | < 5.00 |  | 
7.19 | 7.16 | 7.17 | 7.01 |  |  |  | Cc1nc(C(F)(F)F)ncc1Oc1ccc(CNc2nc3c4c(n2)N(C)[C@@H]([C@H](C)O)C(=O)N4CCC3)cn1 [Compound 25] | 7.80 | < 5.00 |  | 
